Source: patent EP1953147A1, “HETEROCYCLIC COMPOUND AND MEDICINAL APPLICATION THEREOF” (priority 2005, dated 2007)

Test system: ΔG/SEAP/HCV E1E2
Experiment: Effect of test substance on cell infection with HCV pseudotype virus (SEAP reporter assay in HepG2 cells)
Format: cell-based
Details: Hepatitis C virus

SMILES | IC50 [nM]
CCCCNC(=O)CN1CCc2c(-c3cc(OC)cc(OC)c3)nn(-c3cc(N4CC[C@H](O)C4)ccc3C(F)(F)F)c(=O)c21 [Example 34, N-butyl-2-{4-(3,5-dimethoxy-phenyl)-6-[5-((S)-3-hydroxy-pyrrolidin-1-yl)-2-trifluoromethyl-phenyl]-7-oxo-2,3,6,7-tetrahydro-pyrrolo[2,3-d]pyridazin-1-yl}-acetamide] | < 100
CCC(O)CN1CCc2c(-c3cc(OC)cc(OC)c3)nn(-c3cc(N4CC[C@H](O)C4)ccc3C(F)(F)F)c(=O)c21 (stereo partly drawn) [Example 30, 4-(3,5-dimethoxy-phenyl)-1-(2-hydroxy-butyl)-6-[5-((S)-3-hydroxy-pyrrolidin-1-yl)-2-trifluoromethylphenyl]-1,2,3,6-tetrahydro-pyrrolo[2,3-d]pyridazin-7-one] | < 100
O=c1c2c(c(C3CCCC3)nn1-c1cc(N3CC[C@H](O)C3)ccc1C(F)(F)F)CCC2 [Example 1-19, 4-cyclopentyl-2-[5-((S)-3-hydroxy-pyrrolidin-1-yl)-2-trifluoromethyl-phenyl]-2,5,6,7-tetrahydro-cyclopenta[d]pyridazin-1-one] | 100 to 10000
O=c1c2c(c(C3=CCCCC3)nn1-c1cc(N3CC[C@H](O)C3)ccc1C(F)(F)F)CCC2 [Example 113, 4-cyclohex-1-enyl-2-[5-((S)-3-hydroxy-pyrrolidin-1-yl)-2-trifluoromethyl-phenyl]-2,5,6,7-tetrahydro-cyclopenta[d]pyridazin-1-one] | 100 to 10000
COc1cc(OC)cc(-c2nn(-c3cc(N4CC[C@H](O)C4)ccc3C(F)(F)F)c(=O)c3c2OCC3)c1 [Example 1-35, 7-(3,5-dimethoxy-phenyl)-5-[5-((S)-3-hydroxy-pyrrolidin-1-yl)-2-trifluoromethyl-phenyl]-3,5-dihydro-2H-furo[2,3-d]pyridazin-4-one] | < 100
COc1cc(OC)cc(-c2nn(-c3cc(N4CC[C@H](O)C4)ccc3C(F)(F)F)c(=O)c3c2CCN3CC(=O)NCCCN2CCN(CCCNC(C)=O)CC2)c1 [Example 56, N-{3-[4-(3-acetylamino-propyl)-piperazin-1-yl]-propyl}-2-{4-(3,5-dimethoxy-phenyl)-6-[5-((S)-3-hydroxy-pyrrolidin-1-yl)-2-trifluoromethyl-phenyl]-7-oxo-2,3,6,7-tetrahydro-pyrrolo[2,3-d]pyridazin-1-yl}-acetamide] | 100 to 10000
COc1cncc(-c2nn(-c3cc(N4CC[C@H](O)C4)ccc3C(F)(F)F)c(=O)c3c2CCC3)c1 [Example 45, 2-[5-((S)-3-hydroxy-pyrrolidin-1-yl)-2-trifluoromethyl-phenyl]-4-(5-methoxy-pyridin-3-yl)-2,5,6,7-tetrahydro-cyclopenta[d]pyridazin-1-one] | < 100
COc1cc(OC)cc(-c2nn(-c3cc(CCCO)ccc3C(F)(F)F)c(=O)c3c2CCC3)c1 [Example 121, 4-(3,5-dimethoxy-phenyl)-2-[5-(3-hydroxy-propyl)-2-trifluoromethyl-phenyl]-2,5,6,7-tetrahydro-cyclopenta[d]pyridazin-1-one] | < 100
COc1cc(OC)cc(-c2nn(-c3cc(N4CC[C@H](O)C4)ccc3C(F)(F)F)c(=O)c3c2CC(C)N3)c1 (stereo partly drawn) [Example 20, 4-(3,5-dimethoxy-phenyl)-6-[5-((S)-3-hydroxy-pyrrolidin-1-yl)-2-trifluoromethyl-phenyl]-2-methyl-1,2,3,6-tetrahydro-pyrrolo[2,3-d]pyridazin-7-one] | < 100
CNC(=O)CCNc1ccc(C(F)(F)F)c(-n2nc(-c3cc(OC)cc(OC)c3)c3c(c2=O)CCC3)c1 [Example 138, 3-{3-[4-(3,5-dimethoxy-phenyl)-1-oxo-1,5,6,7-tetrahydro-cyclopenta[d]pyridazin-2-yl]-4-trifluoromethyl-phenylamino}-N-methyl-propionamide] | < 100
COc1cc(OC)cc(-c2nn(-c3ccccc3C(F)(F)F)c(=O)c3c2CCN3)c1 [Example 32, 4-(3,5-dimethoxy-phenyl)-6-(2-trifluoromethylphenyl)-1,2,3,6-tetrahydro-pyrrolo[2,3-d]pyridazin-7-one] | 100 to 10000
COc1cc(OC)cc(-c2nn(-c3cc(NCC(=O)O)ccc3C(F)(F)F)c(=O)c3c2CCC3)c1 [Example 97, {3-[4-(3,5-dimethoxy-phenyl)-1-oxo-1,5,6,7-tetrahydro-cyclopenta[d]pyridazin-2-yl]-4-trifluoromethyl-phenylamino}-acetic acid] | < 100
COc1cc(OC)cc(-c2nn(-c3cc(N(C)CCCO)ccc3C(F)(F)F)c(=O)c3c2CCC3)c1 [Example 145, 4-(3,5-dimethoxy-phenyl)-2-{5-[(3-hydroxypropyl)-methyl-amino]-2-trifluoromethyl-phenyl}-2,5,6,7-tetrahydro-cyclopenta[d]pyridazin-1-one] | < 100
CNC(=O)CNc1ccc(C(F)(F)F)c(-n2nc(-c3cc(OC)cc(OC)c3)c3c(c2=O)CCC3)c1 [Example 124, 2-{3-[4-(3,5-dimethoxy-phenyl)-1-oxo-1,5,6,7-tetrahydro-cyclopenta[d]pyridazin-2-yl]-4-trifluoromethyl-phenylamino}-N-methyl-acetamide] | < 100
COc1cc(OC)cc(-c2nn(-c3cc(N4CCC(O)C4)ccc3C(F)(F)F)c(=O)c3c2CCN3)c1 (centres unmarked) [Example 18, 4-(3,5-dimethoxyphenyl)-6-[5-(3-hydroxy-pyrrolidin-1-yl)-2-trifluoromethyl-phenyl]-1,2,3,6-tetrahydro-pyrrolo[2,3-d]pyridazin-7-one] | < 100
COc1cc(OC)cc(-c2nn(-c3cc(N4CC[C@H](O)C4)ccc3F)c(=O)c3c2CCC3)c1 [Example 42, 4-(3,5-dimethoxy-phenyl)-2-[2-fluoro-5-((S)-3-hydroxy-pyrrolidin-1-yl)-phenyl]-2,5,6,7-tetrahydro-cyclopenta[d]pyridazin-1-one] | 100 to 10000
COc1cc(OC)cc(-c2nn(-c3cc(NCCNC(C)=O)ccc3C(F)(F)F)c(=O)c3c2CCC3)c1 [Example 117, N-(2-{3-[4-(3,5-dimethoxy-phenyl)-1-oxo-1,5,6,7-tetrahydro-cyclopenta[d]pyridazin-2-yl]-4-trifluoromethyl-phenylamino}-ethyl)-acetamide] | < 100
CN(C)c1ccc(-c2nn(-c3cc(N4CC[C@H](O)C4)ccc3C(F)(F)F)c(=O)c3c2CCC3)cc1 [Example 112, 4-(4-dimethylamino-phenyl)-2-[5-((S)-3-hydroxy-pyrrolidin-1-yl)-2-trifluoromethyl-phenyl]-2,5,6,7-tetrahydro-cyclopenta[d]pyridazin-1-one] | < 100
NC(=O)c1cccc(-c2nn(-c3cc(N4CC[C@H](O)C4)ccc3C(F)(F)F)c(=O)c3c2CCC3)c1 [Example 98, 3-{3-[5-((S)-3-hydroxy-pyrrolidin-1-yl)-2-trifluoromethyl-phenyl]-4-oxo-4,5,6,7-tetrahydro-3H-cyclopenta[d]pyridazin-1-yl}-benzamide] | 100 to 10000
COc1cc(OC)cc(-c2nn(-c3cc(NCCc4ccccc4)ccc3C(F)(F)F)c(=O)c3c2CCC3)c1 [Example 136, 4-(3,5-dimethoxy-phenyl)-2-(5-phenethylamino-2-trifluoromethyl-phenyl)-2,5,6,7-tetrahydro-cyclopenta[d]pyridazin-1-one] | < 100
COc1cc(C)cc(-c2nn(-c3cc(N4CC[C@@H](O)C4)ccc3C(F)(F)F)c(=O)c3c2CCN3)c1 [Example 22, 6-[5-((R)-3-hydroxy-pyrrolidin-1-yl)-2-trifluoromethyl-phenyl]-4-(3-methoxy-5-methyl-phenyl)-1,2,3,6-tetrahydro-pyrrolo[2,3-d]pyridazin-7-one] | < 100
CCCC(=O)Nc1ccc(C(F)(F)F)c(-n2nc(-c3cc(OC)cc(OC)c3)c3c(c2=O)CCC3)c1 [Example 84, N-{3-[4-(3,5-dimethoxy-phenyl)-1-oxo-1,5,6,7-tetrahydro-cyclopenta[d]pyridazin-2-yl]-4-trifluoromethyl-phenyl}-butyramide] | < 100
COc1cc(OC)cc(-c2nn(-c3cc(NCCCC(=O)N(C)C)ccc3C(F)(F)F)c(=O)c3c2CCC3)c1 [Example 154, 4-{3-[4-(3,5-dimethoxy-phenyl)-1-oxo-1,5,6,7-tetrahydro-cyclopenta[d]pyridazin-2-yl]-4-trifluoromethyl-phenylamino}-N,N-dimethyl-butyramide] | < 100
COc1cc(OC)cc(-c2nn(-c3cc(NCCCNC(=O)OC(C)(C)C)ccc3C(F)(F)F)c(=O)c3c2CCC3)c1 [Example 129, (3-{3-[4-(3,5-dimethoxy-phenyl)-1-oxo-1,5,6,7-tetrahydro-cyclopenta[d]pyridazin-2-yl]-4-trifluoromethyl-phenylamino}-propyl)-carbamic acid tert-butyl ester] | < 100
Cc1cc(C)cc(-c2nn(-c3cc(N4CC[C@H](O)C4)ccc3C(F)(F)F)c(=O)c3c2CCC3)c1 [Example 4, 4-(3,5-dimethyl-phenyl)-2-[5-((S)-3-hydroxy-pyrrolidin-1-yl)-2-trifluoromethyl-phenyl]-2,5,6,7-tetrahydro-cyclopenta[d]pyridazin-1-one] | < 100
COc1cc(OC)cc(-c2nn(-c3cc(NCC(N)=O)ccc3C(F)(F)F)c(=O)c3c2CCC3)c1 [Example 123, 2-{3-[4-(3,5-dimethoxy-phenyl)-1-oxo-1,5,6,7-tetrahydro-cyclopenta[d]pyridazin-2-yl]-4-trifluoromethyl-phenylamino}-acetamide] | < 100
CCCOc1ccc(C(F)(F)F)c(-n2nc(-c3cc(OC)cc(OC)c3)c3c(c2=O)CCC3)c1 [Example 53, 4-(3,5-dimethoxy-phenyl)-2-(5-propoxy-2-trifluoromethyl-phenyl)-2,5,6,7-tetrahydro-cyclopenta[d]pyridazin-1-one] | < 100
Cc1cc(-c2cnco2)cc(-c2nn(-c3cc(-c4cccnn4)ccc3C(F)(F)F)c(=O)c3c2CC(C)N3)c1 (centres unmarked) [Example 5, 2-methyl-4-(3-methyl-5-oxazol-5-yl-phenyl)-6-(5-pyridazin-3-yl-2-trifluoromethyl-phenyl)-1,2,3,6-tetrahydro-pyrrolo[2,3-d]pyridazin-7-one] | < 100
COc1cc(OC)cc(-c2nn(-c3cc(N4CC[C@H](O)C4)ccc3C(F)(F)F)c(=O)c3c2CCN3Cc2ccccc2)c1 [Example 102, 1-benzyl-4-(3,5-dimethoxy-phenyl)-6-[5-((S)-3-hydroxy-pyrrolidin-1-yl)-2-trifluoromethyl-phenyl]-1,2,3,6-tetrahydro-pyrrolo[2,3-d]pyridazin-7-one] | < 100
